In patent EP3298022B1, “NOVEL ANNELATED PHENOXYACETAMIDES” (Boehringer Ingelheim International GmbH, priority 2015, dated 2017):

Tests used:
in vitro = in vitro ADME; conditions: human, pH 7.4, 37°C, 10 µM compound; for Papp A→B: apical-to-basal; for Papp B→A: basal-to-apical
Procedure: Permeability measurements across polarized, confluent CALU-3 cell monolayers grown on permeable filter supports are used to provide information on the potential of a compound to pass the lung epithelium. Apparent permeability coefficients (Papp) of the compounds across the CALU-3 cell monolayers are measured (pH 7.4, 37°C) in apical-to-basal (AB) and basal-to-apical (BA) transport direction.
CALU-3 cells (1-2 x 10^5 cells/1 cm^2 area) are seeded on filter inserts (Costar transwell polycarbonate filters, 0.4 µm pore size) and cultured (for 10 - 12 days DMEM) until tight monolayers are formed. Compounds of interest are dissolved in appropriate solvent (DMSO, 10 mM stock solution). Stock solutions are diluted with HTP-4 buffer (128.13 mM NaCl, 5.36 mM KCl, 1 mM MgSO4, 1.8 mM CaCl2, 4.17 mM NaHCO3, 1.19 mM Na2HPO4 x 7H2O, 0.41 mM NaH2PO4xH2O, 15 mM HEPES, 20 mM glucose, 0.25 % BSA, pH 7.4) to prepare the transport solutions (10 µM compound, final DMSO <= 0.5 %). The transport solution (TL) is applied to the apical or basolateral donor side for measuring A-B or B-A permeability (3 filter replicates), respectively. The receiver side contains the same buffer as the donor side. After 30 min of accommodation, samples are collected at the start t0 = 0 min and at the end of the experiment tn = 90 min from the donor and at 0, 30, 60, and 90 min also from the receiver chamber. Volume removed is replenished by HTP-4 buffer. The compound concentration in the samples is measured by HPLC-MS/MS or scintillation counting. The permeability coefficient (Papp) and efflux ratio are calculated according to: Papp [cm/s] = (concentration receiver [nM] * volume receiver [mL]/time interval [sec])*(1/filter area)*(1/donor concentration [nM]).

ENaC = biological target: T1, ENaC (Mus musculus, UniProt Q61180+Q9WU38+Q9WU39); test: Ussing Chamber assay (short circuit current, amiloride sensitive I_SC); type: cell-based; conditions: Mouse kidney M-1 cells, apical administration, 37°C
T1 construct: Mouse kidney M-1 cells were cultivated in DMEM containing 5% FCS and 5µM dexamethasone; endogenous in cells; host or cells: Mouse kidney M-1 cells (cortical collecting duct line), dexamethasone-treated, on transwell filters
T1 sequence (Q61180 1-699): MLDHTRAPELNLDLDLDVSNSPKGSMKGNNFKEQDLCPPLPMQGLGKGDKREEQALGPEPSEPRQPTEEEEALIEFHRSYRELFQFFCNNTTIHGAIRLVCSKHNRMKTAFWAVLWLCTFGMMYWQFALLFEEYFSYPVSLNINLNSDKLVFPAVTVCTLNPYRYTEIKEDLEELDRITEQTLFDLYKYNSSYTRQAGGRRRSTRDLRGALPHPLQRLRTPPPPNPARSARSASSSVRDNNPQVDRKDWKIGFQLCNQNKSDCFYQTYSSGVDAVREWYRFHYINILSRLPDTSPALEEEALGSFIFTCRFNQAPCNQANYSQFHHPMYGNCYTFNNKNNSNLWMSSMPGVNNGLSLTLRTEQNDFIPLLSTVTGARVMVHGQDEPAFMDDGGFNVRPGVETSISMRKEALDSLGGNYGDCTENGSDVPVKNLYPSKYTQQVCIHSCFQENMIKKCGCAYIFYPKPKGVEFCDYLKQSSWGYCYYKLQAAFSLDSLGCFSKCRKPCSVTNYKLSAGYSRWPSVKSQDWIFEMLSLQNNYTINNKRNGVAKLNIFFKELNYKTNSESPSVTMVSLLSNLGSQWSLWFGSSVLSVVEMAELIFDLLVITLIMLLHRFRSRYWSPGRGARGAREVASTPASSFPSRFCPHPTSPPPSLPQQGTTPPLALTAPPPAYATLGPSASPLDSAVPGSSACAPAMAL
T1 sequence (Q9WU38 1-638): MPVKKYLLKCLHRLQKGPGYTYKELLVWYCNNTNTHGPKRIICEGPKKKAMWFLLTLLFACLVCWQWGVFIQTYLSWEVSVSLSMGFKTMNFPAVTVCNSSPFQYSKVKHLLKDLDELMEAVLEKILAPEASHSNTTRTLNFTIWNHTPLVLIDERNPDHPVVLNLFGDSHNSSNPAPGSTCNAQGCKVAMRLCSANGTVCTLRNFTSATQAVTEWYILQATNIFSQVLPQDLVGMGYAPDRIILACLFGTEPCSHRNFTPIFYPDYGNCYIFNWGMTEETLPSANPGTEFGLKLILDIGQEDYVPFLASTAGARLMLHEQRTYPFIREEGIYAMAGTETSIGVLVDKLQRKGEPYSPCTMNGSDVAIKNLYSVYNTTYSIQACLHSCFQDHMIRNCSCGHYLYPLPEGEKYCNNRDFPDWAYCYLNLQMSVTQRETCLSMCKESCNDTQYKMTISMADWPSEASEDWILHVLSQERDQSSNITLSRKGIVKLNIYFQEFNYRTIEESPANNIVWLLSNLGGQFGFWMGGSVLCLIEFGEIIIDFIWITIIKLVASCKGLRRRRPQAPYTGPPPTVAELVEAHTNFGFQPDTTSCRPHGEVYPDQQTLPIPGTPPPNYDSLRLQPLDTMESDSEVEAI
T1 sequence (Q9WU39 1-655): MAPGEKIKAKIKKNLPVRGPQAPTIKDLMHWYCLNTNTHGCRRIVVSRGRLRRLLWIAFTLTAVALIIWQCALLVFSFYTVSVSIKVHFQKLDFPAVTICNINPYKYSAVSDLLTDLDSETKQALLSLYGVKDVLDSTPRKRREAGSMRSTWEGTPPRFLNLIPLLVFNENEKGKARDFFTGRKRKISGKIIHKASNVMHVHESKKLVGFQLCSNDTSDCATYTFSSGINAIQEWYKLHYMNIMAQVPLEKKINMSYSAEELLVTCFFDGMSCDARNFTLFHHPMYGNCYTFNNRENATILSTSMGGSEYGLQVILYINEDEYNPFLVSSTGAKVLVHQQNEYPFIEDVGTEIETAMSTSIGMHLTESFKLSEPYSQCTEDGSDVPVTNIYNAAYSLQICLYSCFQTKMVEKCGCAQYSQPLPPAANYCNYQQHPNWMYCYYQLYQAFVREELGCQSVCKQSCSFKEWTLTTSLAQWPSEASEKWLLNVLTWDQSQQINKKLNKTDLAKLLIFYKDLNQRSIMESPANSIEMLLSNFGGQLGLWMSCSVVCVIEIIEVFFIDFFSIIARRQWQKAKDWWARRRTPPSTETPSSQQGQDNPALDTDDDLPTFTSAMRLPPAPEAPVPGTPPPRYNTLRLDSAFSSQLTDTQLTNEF
Procedure: The IC50 values of the example compounds given above were determined in the Ussing Chamber assay.
Ussing Chamber: Mouse kidney M-1 cells were cultivated in DMEM containing 5% FCS and 5µM dexamethasone for 10 to 12 days on polyester transwell filters. Filters were inserted into a teflon-coated well-plate which fit into the ussing chamber system. Prior to measurement the medium of M-1 cells was replaced with Caco-2 transport buffer (Invitrogen, Germany). During measurements, the Ussing chamber temperature was kept at 37°C. Short circuit currents (I_sc) were measured in the voltage-clamp mode with the software package Lab View for data acquisition and analysis. The transepithelial electrical resistance (TEER) was determined by the application of voltage steps of ±5mV every 5 sec. Compounds were administered at a final concentration of 3µM or at increasing concentrations (1-3-10µM) to the apical solution. At the end of each experiment the amiloride sensitive I_SC was measured by adding 3µM amiloride to the apical compartment. Results are expressed as inhibition in percent of the amiloride effect or as IC50.

For `CCn1c(CNC(=O)c2nc(Cl)cnc2N)[n+](CC)c2ccc(OCC(=O)NCCCN)cc21` [Example 2.01], the Papp A→B (in vitro) was 0.2 ×10⁻⁶ cm/s, the Papp B→A (in vitro) was 0.5 ×10⁻⁶ cm/s and the IC50 (ENaC) was 1 nM.

For `CC[n+]1c(CNC(=O)c2nc(Cl)cnc2N)n(CC2CCCO2)c2cc(OCC(=O)N3CC[S+]([O-])CC3)ccc21` (stereo not drawn) [Example 1.01], the Papp A→B (in vitro) was 0.8 ×10⁻⁶ cm/s and the Papp B→A (in vitro) was 0.3 ×10⁻⁶ cm/s.

Work on `CCOCCN1CCC(NC(=O)COc2ccc3c(c2)n(CC)c(CNC(=O)c2nc(Cl)cnc2N)[n+]3CC)CC1` [Example 2.07] yielded an IC50 (ENaC) of 3 nM.
